Values joined by “and” are separate entries in the source; they are usually repeats but may differ in a detail not shown here. Identical values can stand only once. Toxic doses and inconclusive results are not listed. Rule for the calls: active = survival T/C of 150% or more; inactive = T/C below 125% in these data.
Tested on: P388 leukemia ip, CD2F1 mice, survival T/C
Experiment: NCI In Vivo Anticancer Drug Screen. Data for tumor model P388 Leukemia (intraperitoneal) in CD2F1 (CDF1) mice
Details: endpoint: median survival time, higher = longer survival
In short: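 Mice carrying the transplanted tumor received test compound or vehicle. Survival was recorded in each group, and the value is the treated-group measurement divided by that of the vehicle-treated control group.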

[1] = dose: 50.0 mg/kg/injection, schedule: Q01DX005 (ip), vehicle: Klucel (hydroxypropylcellulose) (HPC)
[2] = dose: 100.0 mg/kg/injection, schedule: Q01DX005 (ip), vehicle: Klucel (hydroxypropylcellulose) (HPC)
[3] = dose: 200.0 mg/kg/injection, schedule: Q01DX005 (ip), vehicle: Klucel (hydroxypropylcellulose) (HPC)
[4] = dose: 60.0 mg/kg/injection, schedule: Q01DX005 (ip), vehicle: saline with Tween-80
[5] = dose: 120.0 mg/kg/injection, schedule: Q01DX005 (ip), vehicle: saline with Tween-80
[6] = dose: 240.0 mg/kg/injection, schedule: Q01DX005 (ip), vehicle: saline with Tween-80
[7] = dose: 25.0 mg/kg/injection, schedule: Q01DX009 (ip), vehicle: saline with Tween-80
[8] = dose: 50.0 mg/kg/injection, schedule: Q01DX009 (ip), vehicle: saline with Tween-80
[9] = dose: 100.0 mg/kg/injection, schedule: Q01DX009 (ip), vehicle: saline with Tween-80
[10] = dose: 200.0 mg/kg/injection, schedule: Q01DX009 (ip), vehicle: saline with Tween-80
[11] = dose: 60.0 mg/kg/injection, schedule: Q01DX005 (ip), vehicle: Klucel (hydroxypropylcellulose) (HPC)
[12] = dose: 120.0 mg/kg/injection, schedule: Q01DX005 (ip), vehicle: Klucel (hydroxypropylcellulose) (HPC)
[13] = dose: 240.0 mg/kg/injection, schedule: Q01DX005 (ip), vehicle: Klucel (hydroxypropylcellulose) (HPC)
[14] = dose: 25.0 mg/kg/injection, schedule: Q01DX009 (ip), vehicle: water

Measured: T/C

CC(C)C(NSC(=O)C1CCCN1Sc1ccc([N+](=O)[O-])cc1[N+](=O)[O-])C(=O)OCc1ccccc1 (stereo not given)
inactive: dose: 25.0 mg/kg/injection, schedule: Q01DX005 (ip), vehicle: Klucel (hydroxypropylcellulose) (HPC) 92 % of control | [1] 94 % of control | [2] 86 % of control and 93 % of control | [3] 93 % of control

COc1cc(C2C(C)=COc3cc4c(cc32)OCO4)cc(OC)c1OC (stereo not given)
inactive: [4] 93 % of control | [5] 100 % of control | [6] 93 % of control

O=NN(CCBr)C(=O)Nc1ccccc1
inactive: dose: 66.0 mg/kg/injection, schedule: Q04DX003 (ip), vehicle: saline 118 % of control | dose: 100.0 mg/kg/injection, schedule: Q04DX003 (ip), vehicle: saline 109 % of control | dose: 150.0 mg/kg/injection, schedule: Q04DX003 (ip), vehicle: saline 100 % of control
active: dose: 6.0 mg/kg/injection, schedule: Q01DX009 (ip), vehicle: saline with Tween-80 154 % of control | dose: 12.0 mg/kg/injection, schedule: Q01DX009 (ip), vehicle: saline with Tween-80 177 % of control | [7] 177 % of control | dose: 37.5 mg/kg/injection, schedule: Q01DX009 (ip), vehicle: saline with Tween-80 175 % of control

CCC(CC)NCCNc1cc(OC)cc2cccnc12
inactive: dose: 12.5 mg/kg/injection, schedule: Q01DX005 (ip), vehicle: saline 109 % of control | dose: 25.0 mg/kg/injection, schedule: Q01DX005 (ip), vehicle: saline 108 % of control | dose: 50.0 mg/kg/injection, schedule: Q01DX005 (ip), vehicle: saline 100 % of control and 103 % of control

COc1cc(OC)c(NC(=O)O/N=C(\c2ccccc2)C(O)c2ccccc2)cc1Cl (stereo not given)
inactive: [8] 91 % of control | [9] 91 % of control | [10] 90 % of control

NC(=O)C[n+]1ccccc1
inactive: dose: 50.0 mg/kg/injection, schedule: Q01DX009 (ip), vehicle: saline 101 % of control | dose: 100.0 mg/kg/injection, schedule: Q01DX009 (ip), vehicle: saline 111 % of control | dose: 200.0 mg/kg/injection, schedule: Q01DX009 (ip), vehicle: saline 118 % of control | dose: 400.0 mg/kg/injection, schedule: Q01DX009 (ip), vehicle: saline 112 % of control

CCCCOC(=O)N(CCCl)N=O
inactive: dose: 1.25 mg/kg/injection, schedule: Q01DX009 (ip), vehicle: saline with Tween-80 119 % of control | dose: 2.5 mg/kg/injection, schedule: Q01DX009 (ip), vehicle: saline with Tween-80 108 % of control | dose: 5.0 mg/kg/injection, schedule: Q01DX009 (ip), vehicle: saline with Tween-80 98 % of control

CSc1nc(-c2ccccc2)c(C(=O)NC(C)CN2CCCCC2)s1 (stereo not given)
inactive: [4] 95 % of control | [5] 100 % of control

CC1CC[N-]C(N)N1.CC1CC[N-]C(N)N1.[Cl][Pd][Cl] (stereo not given)
inactive: [11] 97 % of control | [12] 97 % of control | [13] 90 % of control

CSCCC(NC(=O)C(C)NC(=O)OCc1ccccc1)C(=O)O (stereo not given)
inactive: [1] 99 % of control | [2] 101 % of control | [3] 95 % of control

NC(=O)C1CCN(Cc2c[nH]c3ccccc23)CC1
inactive: [7] 104 % of control | [8] 100 % of control | [9] 104 % of control | [10] 102 % of control

N#Cc1nnc2cc(-c3ccccc3)nn2c1C1CC1
inactive: [11] 96 % of control | [12] 96 % of control | [13] 100 % of control

Cc1nnc2n(N)c(=O)c(CC(=O)c3ccc(F)cc3)nn12
inactive: [11] 96 % of control | [12] 88 % of control | [13] 90 % of control

Cc1cc(NCCCN(C)C)c2ccc3c(ccc4c(NCCCN(C)C)cc(C)nc43)c2n1
inactive: dose: 12.5 mg/kg/injection, schedule: Q01DX009 (ip), vehicle: saline with Tween-80 98 % of control | [7] 118 % of control

O=c1[nH]cc(-c2ccccc2)c(=O)[nH]1
inactive: dose: 100.0 mg/kg/injection, schedule: Q01DX001 (ip), vehicle: Klucel (hydroxypropylcellulose) (HPC) 100 % of control | dose: 200.0 mg/kg/injection, schedule: Q01DX001 (ip), vehicle: Klucel (hydroxypropylcellulose) (HPC) 98 % of control | dose: 400.0 mg/kg/injection, schedule: Q01DX001 (ip), vehicle: Klucel (hydroxypropylcellulose) (HPC) 96 % of control

CC(=O)/C=C\c1ccc(Cl)cc1
inactive: [8] 100 % of control | [9] 91 % of control | dose: 100.0 mg/kg/injection, schedule: Q04DX003 (ip), vehicle: saline with Tween-80 113 % of control | dose: 200.0 mg/kg/injection, schedule: Q04DX003 (ip), vehicle: saline with Tween-80 98 % of control | dose: 400.0 mg/kg/injection, schedule: Q04DX003 (ip), vehicle: saline with Tween-80 91 % of control

O=C(O)CC1(C(=O)O)CC2C=CC1C2 (stereo not given)
inactive: [4] 104 % of control | [5] 91 % of control | [6] 91 % of control

COc1cccc2c1C(=O)c1c(O)c3c(c(O)c1C2=O)C[C@@](O)(C(=O)CSC(C)=O)C[C@@H]3OC1CC(N)C(O)C(C)O1 (stereo not given in full)
inactive: [14] 108 % of control and 90 % of control

N#CCN(CC#N)CC#N
inactive: dose: 1.56 mg/kg/injection, schedule: Q01DX009 (ip), vehicle: saline with Tween-80 104 % of control | dose: 1.56 mg/kg/injection, schedule: Q04DX003 (ip), vehicle: saline with Tween-80 95 % of control | dose: 3.13 mg/kg/injection, schedule: Q01DX009 (ip), vehicle: saline with Tween-80 90 % of control | dose: 3.13 mg/kg/injection, schedule: Q04DX003 (ip), vehicle: saline with Tween-80 90 % of control | dose: 6.25 mg/kg/injection, schedule: Q01DX009 (ip), vehicle: saline with Tween-80 109 % of control | dose: 6.25 mg/kg/injection, schedule: Q04DX003 (ip), vehicle: saline with Tween-80 90 % of control

N=C(N)c1ccc(/C=C/c2ccc(C(=N)N)cc2O)cc1
inactive: dose: 12.5 mg/kg/injection, schedule: Q01DX009 (ip), vehicle: water 111 % of control | dose: 22.0 mg/kg/injection, schedule: Q01DX009 (ip), vehicle: water 120 % of control | [14] 120 % of control

C=C(C)C1NC(=O)C(C(O)c2cc(O)c(O)c(Cl)c2)N(C)C(=O)/C(=C/C(=O)O)NC(=O)/C(=C(\C)CC)NC(=O)C2C=CCN2C(=O)C(C(C)(O)CC)NC1=O (stereo not given)
inactive: dose: 0.65 mg/kg/injection, schedule: Q01DX005 (ip), vehicle: Klucel (hydroxypropylcellulose) (HPC) 88 % of control | dose: 1.25 mg/kg/injection, schedule: Q01DX005 (ip), vehicle: Klucel (hydroxypropylcellulose) (HPC) 95 % of control | dose: 2.5 mg/kg/injection, schedule: Q01DX005 (ip), vehicle: Klucel (hydroxypropylcellulose) (HPC) 91 % of control

CC1=CC(=O)OC12CCCC(C)(C)C2 (stereo not given)
inactive: dose: 50.0 mg/kg/injection, schedule: Q01DX005 (ip), vehicle: saline with Tween-80 106 % of control | dose: 100.0 mg/kg/injection, schedule: Q01DX005 (ip), vehicle: saline with Tween-80 104 % of control | dose: 200.0 mg/kg/injection, schedule: Q01DX005 (ip), vehicle: saline with Tween-80 106 % of control

CNC(=O)CCCCC(=O)NC
inactive: [8] 96 % of control | [9] 104 % of control | [10] 114 % of control | dose: 400.0 mg/kg/injection, schedule: Q01DX009 (ip), vehicle: saline with Tween-80 96 % of control

N#Cc1c(F)cccc1N1CCSCC1
inactive: [11] 109 % of control | [12] 93 % of control | [13] 89 % of control

[Mn+2].[O-]c1ccccc1/C=N/c1ccccn1.[O-]c1ccccc1/C=N/c1ccccn1.[OH3+].[OH3+]
inactive: dose: 50.0 mg/kg/injection, schedule: Q04DX002 (ip), vehicle: saline with Tween-80 97 % of control | dose: 100.0 mg/kg/injection, schedule: Q04DX002 (ip), vehicle: saline with Tween-80 96 % of control | dose: 200.0 mg/kg/injection, schedule: Q04DX002 (ip), vehicle: saline with Tween-80 94 % of control

NC(CCCCNc1ccc([N+](=O)[O-])cc1[N+](=O)[O-])C(=O)NC(Cc1ccc(O)cc1)C(=O)O (stereo not given)
inactive: dose: 50.0 mg/kg/injection, schedule: Q01DX005 (ip), vehicle: saline + Tween-80 + alcohol 101 % of control | dose: 100.0 mg/kg/injection, schedule: Q01DX005 (ip), vehicle: saline + Tween-80 + alcohol 101 % of control | dose: 200.0 mg/kg/injection, schedule: Q01DX005 (ip), vehicle: saline + Tween-80 + alcohol 103 % of control

COc1ccc(NC(=O)CCC(=O)CC(=O)c2ccncc2)cc1
inactive: [4] 101 % of control | [5] 103 % of control | [6] 93 % of control

Reference: PubChem BioAssay AID330 (DTP/NCI, 2004)
